Assay results reported in patent US20080176251A1, “Preparation of high purity phenothiazine N-alkylsulfonates and their use in chemiluminescent assays for the measurement of peroxidase acitivity” (Cyanagen Srl, priority 2007, published 2008).

Tests used:
peroxidase enzyme = conditions: phenothiazine present as impurity in the enhancer; according to U.S. Pat. No. 6,432,662; cited from earlier work
[1] = test system: horseradish peroxidase (HRP-Type VIIA); experiment: luminol-peroxide-peroxidase chemiluminescent reaction, dependence on enhancer concentration (Example 3); format: biochemical; conditions: 2.50 mM luminol, 2.00 mM perborate, pH 8.6
Protocol: All measurements reported in Example 3 were carried out with a spectrofluorimeter (Varian Eclipse), Bio/Chemiluminescence Mode (wavelength of emission: 425 nm; emission slit: 20 nm). A series of substrates in 0.1 M, pH 8.6 Tris Buffer is prepared, with the following compositions: • [luminol sodium salt]=2.50 mM • [sodium perborate]=2.00 mM • 3-(phenothiazin-10-yl)propane-1-sulfonate=11.5 μM, 23 μM, 47 μM, 94 μM, 188 μM, 375 μM, 1500 μM e 3000 μM.
To a polymethylmethacrylate fluorimetry cuvette of containing 2 mL of each substrate, is added 10 μL of a solution of 0.5 μg/mL of horseradish peroxidase (HRP-Type VIIA). After mixing the solution with a vortex for a few seconds, measurement of the luminescent signal is initiated. […] The dependence of the chemiluminescent signal (plateau value) for each substrate, is reported graphically in FIG. 1. The luminescent signal grows very rapidly with increasing concentration of the enhancer, 3-(phenothiazin-10-yl)propane-1-sulfonate, until it reaches a maximum value between 0.5 and 1 mM. Further raising the concentration of the enhancer, the chemiluminescent signal begins to decline slowly. At the highest concentration of enhancer, 3.0 mM, the signal is approximately 70% of the maximum value.

[2] = test system: horseradish peroxidase (HRP-Type VIIA); experiment: enhanced luminol-peroxide-peroxidase chemiluminescent reaction, dependence on luminol concentration (Example 4); format: biochemical
Protocol: All measurements reported in Example 4 were carried out with a spectrofluorimeter (Varian Eclipse), Bio/Chemiluminescence Mode (wavelength of emission: 425 nm; emission slit: 20 nm). A series of substrates in 0.1 M, pH 8.6 Tris Buffer is prepared, with the following compositions: • [luminol sodium salt]=0.625 mM, 1.25 mM, 2.50 mM, 5.0 mM, 10 mM. • [sodium perborate]=2.00 mM • 3-(phenothiazin-10-yl)propane-1-sulfonate=0.75 mM
To a polymethylmethacrylate fluorimetry cuvette of containing 2 mL of each substrate, is added 10 μL of a solution of 0.5 μg/mL of horseradish peroxidase (HRP-Type VIIA). After mixing the solution with a vortex for a few seconds, measurement of the luminescent signal is initiated. […] The dependence of the chemiluminescent signal (plateau value) for each substrate, is reported graphically in FIG. 2. The luminescent signal gradually grows very rapidly with increasing concentration of the luminol, until it reaches a maximum value between 0.5 and 1 mM. Further raising the concentration of the enhancer, the chemiluminescent signal begins to decline slowly. At the highest concentration of enhancer, 3.0 mM, the signal is approximately 70% of the maximum value. The luminescent signal grows gradually, and reaches a plateau at the highest concentration of luminol used in the experiment, 10 mM.

[3] = test system: horseradish peroxidase (HRP-Type VIIA); experiment: pH dependence of the enhanced luminol-peroxide-peroxidase chemiluminescent reaction (Example 5); format: biochemical; conditions: 5.0 mM luminol, 4.00 mM perborate, 1.50 mM enhancer; all pH values
Protocol: All measurements reported in Example 5 were carried out with a fluorimeter (Varian Eclipse), Bio/Chemiluminescence Mode (wavelength of emission: 425 nm; emission slit: 10 nm; emission filter: open; photomultiplier voltage: medium). A series of substrates in 0.125 M, pH 9.1 Tris Buffer is prepared, with the following composition: • [luminol sodium salt]=5.0 mM. • [sodium perborate]=4.00 mM • 3-(phenothiazin-10-yl)propane-1-sulfonate=1.50 mM
A series of polymethylmethacrylate fluorimetry cuvettes is prepared, each containing of containing 2 mL of substrate. To each cuvette is added a small amount of 5M or 12M HCl, in order to adjust the pH to the following values: 9.02, 8.76, 8.51, 8.41, 8.28, 8.14 and 7.95, and limiting changes in the total volume to less than 5%. Then to each cuvette are added 10 μL of a 0.5 μg/mL solution of horseradish peroxidase (HRP-Type VIIA). After mixing the solution with a vortex for a few seconds, measurement of the luminescent signal is initiated. […] From the results obtained, which are shown in FIG. 3, it is evident that the chemiluminescent signal reaches the maximum value in the range between pH 8.3 and pH 8.6.

peroxidase = conditions: results obtained by Fujirebio, U.S. Pat. No. 5,171,668; cited from earlier work

| SMILES | effect on the peroxidase enzyme (peroxidase enzyme) | time course of the chemiluminescent signal ([1]; all enhancer concentrations) | chemiluminescent signal relative to the maximum value ([1]; highest concentration of enhancer, 3.0 mM) | time course of the chemiluminescent signal ([2]; 0.75 mM enhancer, 2.00 mM perborate, luminol 0.625-10 mM, pH 8.6) | luminol concentration at which the luminescent signal reaches a plateau ([2]; 0.75 mM enhancer, 2.00 mM perborate, pH 8.6, highest luminol concentration used) | chemiluminescent signal relative to the maximum value ([2]; as printed in Example 4: highest concentration of enhancer, 3.0 mM) | time course of the chemiluminescent signal [3] | enhancement of luminol chemiluminescence compared with standard enhancer 4-iodophenol (peroxidase) |
| --- | --- | --- | --- | --- | --- | --- | --- | --- |
| c1ccc2c(c1)Nc1ccccc1S2 [phenothiazine] | deactivates the peroxidase enzyme |  |  |  |  |  |  |  |
| O=S(=O)([O-])CCCN1c2ccccc2Sc2ccccc21.[Na+] [sodium 3-(phenothiazin-10-yl)propane-1-sulfonate] |  | reaches a plateau within a few minutes, and then remains stable for at least thirty minutes | approximately 70% | reaches a plateau within a few minutes, and then remains stable for at least thirty minutes | 10 mM | approximately 70% | reaches a constant value within a few seconds | not significantly better than those observed with a standard enhancer such as 4-iodophenol |
